Results from article PMC7815786, “Antimicrobial effects of syndiotactic polypeptides” (Scientific Reports, 2021).
Converted amounts (≈) assume the structure as drawn. Where a SMILES comes first, the peptide text is derived from it. [ ]: non-standard residue; d: D form.

How the values were obtained:
[1] = tested on: bacterial species tested (not specified); assay type: cell-based; conditions: wet lab experiments, bacterial species not given
Method: (§1) The antibacterial activity was performed using micro-dilution method as per Clinical and Laboratory Standards Institute (CLSI). Gentamicin resistant MRSA (ATCC 33592), Mycobacterium smegmatis (ATCC607) were procured from ATCC, Escherichia coli MG1655 has been sourced fromChaudhary laboratory, BSBE, IIT Guwahati. The clinical isolates was provided by Dr. Chimanjita Phukan (Guwahati Medical College Hospital, Bhangagarh, Guwahati, Assam). The media broth was procured from Himedia Laboratories. Overnight culture of Gentamicin resistant MRSA (ATCC 33592), Escherichia coli MG1655, clinical isolates [(S. aureus (drug resistant) and E. coli (multidrug resistant) supplementary table 2] were diluted to 10^6 CFU/mL in Nutrient Broth (NB). 100 µL of broth containing 50 µL of bacterial suspension and test peptides at various concentrations were incubated for 12 to 16 h at 37 °C[33]. Similarly, Mycobacterium smegmatis (ATCC607) was diluted to 10^6 CFU/mL in M7H9 media. 50 µL of bacterial suspension was treated with 50 µL peptides at various concentrations. The peptide bacterial suspension was incubated for 72 h at 37 °C. The antimicrobial potencies of the peptides were evaluated at 600 nm by a comparative assessment with untreated bacterial suspension (negative control). The Minimal Inhibitory Concentration (MIC) was reported at the lowest concentration, where no growth was observed, as per standard protocols. The serum sensitivity experiment was similar to antibacterial activity. In this experiment, 50% serum containing media was used, instead of media alone. The experiment with human serum was performed as per IHEC (Institute Human Ethics Committee) guidelines, at IIT Guwahati hospital, from healthy adult donors. All the protocols were approved by the IHEC, and performed, with the informed consent and written approval from the subjects.
Several modes of action of AMP’s have been proposed, and the contentious issue primarily is whether the peptide is targeting the membrane, followed by its disruption or it penetrates the membrane invading cytoplasm, affecting cellular metabolism. […]

[2] = tested on: Gentamicin resistant MRSA (ATCC 33592); assay type: cell-based, Staphylococcus aureus
Method: as §1

[3] = tested on: Mycobacterium smegmatis (ATCC607); assay type: cell-based; conditions: ATCC607, 72 h
Method: as §1

Escherichia coli MG1655 = assay type: cell-based
Method: as §1

[4] = tested on: clinical isolate of multi-drug resistant Escherichia coli (sample 28162); assay type: cell-based; conditions: clinical isolate of multi-drug resistant (sample 28162)
Method: as §1
(§2) Primary screening of the antibacterial activity of the peptides was performed against clinical isolates obtained from a tertiary referral hospital (Details in supplementary information, section 3). Resistant Staphylococcus aureus (Gram-positive) and E.coli (Gram negative) are the two clinical bacterial strains assayed in this study. The results of the antimicrobial assay are summarized in Fig. 4 and supplementary Table 2.
(§3) Supplementary Table 2. The in-vitro antimicrobial activity of designed peptides against clinical isolates of multi-drug resistant Staphylococcus aureus and Escherichia coli. The concentration is expressed in µM.

[5] = tested on: clinical isolate of drug resistant Staphylococcus aureus (sample 28401); assay type: cell-based; conditions: clinical isolate of drug resistant (sample 28401)
Method: as §1, §2, §3

| Structure (SMILES) | MIC E.coli clinical isolate [4] | MIC S. aureus clinical isolate [5] | MIC values (summary in discussion) [1] | MIC Gentamicin resistant MRSA, Medium [2] | MIC M.smegmatis, Medium [3] | MIC E. coli, Medium (Escherichia coli MG1655) |
| --- | --- | --- | --- | --- | --- | --- |
| CC(C)[C@H](NC(=O)[C@H](NC(=O)[C@H](CCCCN)NC(=O)[C@@H](CCCCN)NC(=O)[C@H](CCCCN)NC(=O)[C@H](NC(=O)[C@@H](NC(=O)[C@H](NC(=O)[C@H](CCCCN)NC(=O)[C@@H](CCCCN)NC(=O)[C@@H](N)CCCCN)C(C)C)C(C)C)C(C)C)C(C)C)C(=O)N[C@H](Cc1c[nH]c2ccccc12)C(=O)N[C@@H](CCCCN)C(N)=O [AS06] (H-K[dK]K[dV]V[dV]K[dK]K[dV]V[dW]K-NH2) |  |  | ~50 µM (≈ 79.8 µg/mL) | 50 µM (≈ 79.8 µg/mL) | 25 µM (≈ 39.9 µg/mL) | 25 µM (≈ 39.9 µg/mL) |
| CC(C)[C@H](NC(=O)[C@H](NC(=O)[C@H](Cc1c[nH]c2ccccc12)NC(=O)[C@@H](Cc1c[nH]c2ccccc12)NC(=O)[C@H](CCCCN)NC(=O)[C@@H](CCCCN)NC(=O)[C@H](CCCCN)NC(=O)[C@H](NC(=O)[C@H](Cc1c[nH]c2ccccc12)NC(=O)[C@@H](Cc1c[nH]c2ccccc12)NC(=O)[C@H](CCCCN)NC(=O)[C@@H](CCCCN)NC(=O)[C@@H](N)CCCCN)C(C)C)C(C)C)C(N)=O [AS03] (H-K[dK]K[dW]W[dV]K[dK]K[dW]W[dV]V-NH2) | 25 µM (≈ 45.7 µg/mL) | 25 µM (≈ 45.7 µg/mL) | 1 to 10 µM | 3.13 µM (≈ 5.72 µg/mL) | 6.25 µM (≈ 11.4 µg/mL) | 6.25 µM (≈ 11.4 µg/mL) |
| CC(C)[C@H](NC(=O)[C@@H](Cc1c[nH]c2ccccc12)NC(=O)[C@H](Cc1c[nH]c2ccccc12)NC(=O)[C@@H](CCCCN)NC(=O)[C@H](CCCNC(=N)N)NC(=O)[C@@H](CCCCN)NC(=O)[C@@H](NC(=O)[C@H](NC(=O)[C@H](Cc1c[nH]c2ccccc12)NC(=O)[C@@H](Cc1c[nH]c2ccccc12)NC(=O)[C@H](CCCNC(=N)N)NC(=O)[C@@H](CCCCN)NC(=O)[C@@H](N)CCCNC(=N)N)C(C)C)C(C)C)C(N)=O [AS01] (H-R[dK]R[dW]W[dV]V[dK]R[dK]W[dW]V-NH2) |  |  |  | 6.25 µM (≈ 12 µg/mL) | 6.25 µM (≈ 12 µg/mL) | 3.13 µM (≈ 5.99 µg/mL) |
| CC(C)C[C@@H](NC(=O)[C@H](Cc1c[nH]c2ccccc12)NC(=O)[C@@H](CC(C)C)NC(=O)[C@@H](N)Cc1c[nH]c2ccccc12)C(=O)N[C@@H](Cc1c[nH]c2ccccc12)C(=O)N[C@H](CC(C)C)C(=O)N[C@@H](Cc1c[nH]c2ccccc12)C(=O)N[C@@H](C(=O)N[C@@H](CCCCN)C(=O)N[C@H](CCCCN)C(=O)N[C@@H](C)C(=O)N[C@H](CCCCN)C(=O)N[C@@H](C)C(=O)N[C@H](CCCCN)C(=O)N[C@@H](CCCCN)C(N)=O)C(C)C [AS08] (H-W[dL]W[dL]W[dL]W[dV]K[dK]A[dK]A[dK]K-NH2) |  |  | 1 to 10 µM | 6.25 µM (≈ 12.4 µg/mL) | 6.25 µM (≈ 12.4 µg/mL) | 6.25 µM (≈ 12.4 µg/mL) |

Now from value to molecule, other results behind:

| MIC E.coli clinical isolate [4] | MIC S. aureus clinical isolate [5] | Structure (SMILES) | MIC values (summary in discussion) [1] | MIC Gentamicin resistant MRSA, Medium [2] | MIC M.smegmatis, Medium [3] | MIC E. coli, Medium (Escherichia coli MG1655) |
| --- | --- | --- | --- | --- | --- | --- |
| 50 µM (≈ 97.7 µg/mL) | 50 µM (≈ 97.7 µg/mL) | CC(C)C[C@H](NC(=O)[C@@H](Cc1c[nH]c2ccccc12)NC(=O)[C@H](CC(C)C)NC(=O)[C@@H](Cc1c[nH]c2ccccc12)NC(=O)[C@H](CCCNC(=N)N)NC(=O)[C@@H](CCCCN)NC(=O)[C@@H](N)CCCNC(=N)N)C(=O)N[C@H](CCCCN)C(=O)N[C@@H](CCCNC(=N)N)C(=O)N[C@H](CCCCN)C(=O)N[C@@H](Cc1c[nH]c2ccccc12)C(=O)N[C@H](CC(C)C)C(=O)N[C@@H](Cc1c[nH]c2ccccc12)C(N)=O [AS02] (H-R[dK]R[dW]L[dW]L[dK]R[dK]W[dL]W-NH2) |  | 3.13 µM (≈ 6.12 µg/mL) | 3.13 µM (≈ 6.12 µg/mL) | 6.25 µM (≈ 12.2 µg/mL) |
| 25 µM (≈ 47.9 µg/mL) | 50 µM (≈ 95.8 µg/mL) | CC(C)[C@@H](NC(=O)[C@H](Cc1c[nH]c2ccccc12)NC(=O)[C@H](NC(=O)[C@H](CCCCN)NC(=O)[C@@H](CCCCN)NC(=O)[C@H](CCCCN)NC(=O)[C@@H](Cc1c[nH]c2ccccc12)NC(=O)[C@@H](N)Cc1c[nH]c2ccccc12)C(C)C)C(=O)N[C@@H](CCCCN)C(=O)N[C@H](CCCCN)C(=O)N[C@@H](CCCCN)C(=O)N[C@H](Cc1c[nH]c2ccccc12)C(=O)N[C@@H](Cc1c[nH]c2ccccc12)C(N)=O [AS04] (H-W[dW]K[dK]K[dV]W[dV]K[dK]K[dW]W-NH2) |  | 1.6 µM (≈ 3.06 µg/mL) | 6.25 µM (≈ 12 µg/mL) | 3.13 µM (≈ 6 µg/mL) |
